Patent US8592446B2, “[1,10]-phenanthroline derivatives for the treatment of neurodegenerative or haematological diseases” (Noscira, S.A., priority 2007, dated 2013)
Where two headings read alike, the source gives them in different places.

Experiments:
Type in all cases: cell-based
[1] = system: SH-SY5Y human neuroblastoma cells; assay: Toxicity: LDH activity release in SH-SY5Y cells; details: 24 h; for Maximum concentration tested for toxicity: increasing concentrations from 1 μM up to 1 mM
Description: The potential effects on cell viability of the assayed compounds are assayed in SH-SY5Y human neuroblastoma cells, by quantification of Lactate dehydrogenase (LDH) activity release. SH-SY5Y human neuroblastoma cells are seeded into 96-well culture plates at 10^4 cells/well. The medium is then removed and the cells incubated with different concentrations of the compounds during 24 h. The compounds are tested at increasing concentrations starting from 1 μM, in fresh culture medium, in order to find the minimum concentration at which the compounds are toxic, up to a maximum of 1 mM. After 24 h, the medium is removed and cells attached to the bottom of the well are lysed by adding 50 μl of Krebs-Hepes; Triton X-100 1% during 5 minutes at room temperature. For LDH release quantification, the Roche cytotoxicity detection kit (Cat.
No. 11 644 793 001) is used. The LDH activity is measured by its absorbance at 492 nm with reference wavelength 620 nm.
In Table 1, for each compound the maximum concentration at which toxicity was tested is indicated in the second column. In the third column, it is indicated whether at this maximum concentration the compound was toxic or not. All the compounds, with the exception of Compound 3, resulted non-toxic at the concentration for which activity was found, in most of the cases even at a 1000-fold concentration. Thus, the compounds may be considered non-toxic.

[2] = system: SH-SY5Y human neuroblastoma cells; assay: Protection against hydrogen peroxide-induced cell death (LDH); details: compound 1 h before H2O2 100 μM, 24 h; for minimal effective concentration: Homo sapiens, SH-SY5Y, read-out: Protect. H2O2 (minimum concentration for which protection was determined)
Description: The aim of this assay is to determine the neuroprotective effect of the compounds of formula (I), when human neuroblastoma cells are exposed to oxidative stress induced by hydrogen peroxide, which is highly deleterious to the cell and its accumulation causes oxidation of cellular targets such as DNA, proteins, and lipids leading to mutagenesis and cell death.
SH-SY5Y human neuroblastoma cells are seeded into 96-well culture plate at a density of 10^4 cells/well. Cells are exposed to different concentrations of the compound one hour before the treatment with H2O2 100 μM during 24 h. 5 mM N-acetylcysteine (NAC), a known anti-oxidant agent was used as a positive control, and preincubated 1 hour before the treatment with H2O2. After 24 h, the medium is removed and cells attached to the bottom of the well are lysed by adding 50 μl of Triton X-100 1% in Krebs-Hepes during 5 minutes at room temperature. For LDH release quantification, Roche cytotoxicity detection kit (Cat. No. 11 644 793 001) was used.

[3] = system: SH-SY5Y human neuroblastoma cells; assay: Protection against 6-OHDA-induced cell death, condition A (10% foetal bovine serum); details: preincubated 2 hours, 6-OHDA 75 μM 16 hours, read-out: Protect. 6-OHDA (+ FBS) (minimum concentration with neuroprotective effect)
Text: (§1) The aim of this experiment is to determine the protective effect of the compounds of formula (1) against the toxicity caused by 6-OHDA. This toxin induces a cell death similar to which occurs in Parkinson's disease, destroying dopaminergic neurons (“MPTP and 6-hydroxydopamine-induced neurodegeneration as models for Parkinson's disease: neuroprotective strategies”; Grunblatt E, et al.; J Neurol. 2000 Apr; 247 Suppl 2:II95-102).
(§2) Two or three days before the experiment, the SH-SY5Y human neuroblastoma cells are seeded into 96-well culture plate at a density of 10^4 cells/well. Cells are exposed to the treatment with 6-OHDA and, finally, cell death is measured by LDH quantification. As positive control we used NAC.
• A) NAC and the compound of formula (I) are preincubated during 2 hours before the treatment with 6-OHDA 75 μM during 16 hours. The assay is performed in medium containing 10% Foetal bovine serum.
(§3) For each compound the minimum concentration of compound of formula (I) at which a neuroprotective effect is shown.

[4] = system: SH-SY5Y human neuroblastoma cells; assay: Protection against 6-OHDA-induced cell death, condition B (no fetal bovine serum); details: preincubated 1 hour, 6-OHDA 50 μM 24 hours, read-out: Protect. 6-OHDA (−FBS) (minimum concentration with neuroprotective effect)
Text: as §1, §2
• B) NAC and the compound of formula (I) are preincubated during 1 hour before the treatment with 6-OHDA 50 μM during 24 hours. The assay is performed in a medium without any fetal bovine serum.
as §3

[5] = system: Aβ (1-40) secretion by CHO7W cells (stably transfected with human APP751 wt cDNA); assay: Inhibition of Aβ(1-40) secretion (ELISA, cellular supernatants); details: Aβ 1-40 ELISA; for minimal effective concentration: read-out: Inhibition secretion beta-amyloid (minimum concentration)
Text: To quantitate Aβ secretion ELISA-based method was used. The assay consists in detection of antigen by selective monoclonal anti-Aβ-antibodies at two different epitopes forming a “Sandwich-complex”, that is detected by colorimetric measure due to the binding of a secondary antibody conjugated with peroxidase that catalyses the conversion of a substrate or chromogen, TMB, into a coloured product, directly proportional to the peptide quantity in the sample. The Aβ production has been analyzed by ELISA, using a colorimetric commercial kit: Immunoassay Kit Human β Amyloid 1-40 (Biosource).
Aβ (1-40) were quantified from cellular supernatants. An APP-transfected cell line has been employed for the experiments: CHO7W (stably transfected with human APP751 wt cDNA). The cells were grown in a culture medium consisting of DMEM supplemented with 2% Fetal bovine serum, 1% penicillin-streptomycin, 1% L-glutamine and 200 μg/ml G418. Cells are seeded in 96-well culture microplate, at 5000 cells/well and treatment with different compounds at different concentrations is performed 24 hour after seeding.
OM99-2 (H-5108, Bachem), a BACE inhibitor, was used as Aβ secretion reduction positive control in all the Aβ secretion studies. The cells were treated with this compound at 3 μM concentration, culture media were collected at 24 hours.

[6] = system: SH-SY5Y cells; assay: Neuroprotection against Aβ25-35 toxicity (LDH assay); details: Homo sapiens, pre-treated 1 hour, 200 μM Aβ25-35 24 hours, read-out: Protect. beta-Amyloid25-35 (minimum concentration showing neuroprotection)
Description: In order to evaluate potential neuroprotection of compounds, SH-SY5Y cells, cultured in 96-well plates, were pre-treated for 1 hour with the compound at different concentrations and then exposed 24 hours to 200 μM Aβ25-35 (Neosystem) to induce extensive oxidative stress and cell death. The ability of the compound of protecting against this toxicity is then evaluated by measuring intracellular LDH, using the colorimetric LDH assay.
It is widely accepted that the neurotoxic activity of Aβ resides within amino acids 25-35 (see e.g. Yankner B A et al., (1990) Neurotrophic and neurotoxic effects of amyloid β protein: reversal by tachykinin neuropeptides; Science 250:279-282).

Row | SMILES | Maximum concentration tested for toxicity [1] [µM] | Toxic at maximum concentration tested (Yes/No) ([1]; at 1 mM) | Protect. H2O2 (minimum concentration for which protection was determined) [2] [nM] | minimal effective concentration [3] [µM] | minimal effective concentration [4] [µM] | minimal effective concentration [5] [µM] | minimal effective concentration [6] [µM] | Toxic at maximum concentration tested (Yes/No) ([1]; at 10 μM) | minimal effective concentration [2] [µM] | minimal effective concentration ([5]; Homo sapiens, CHO-7W) [µM] | Toxic at maximum concentration tested (Yes/No) ([1]; at 1000 μM) | Inhibition secretion beta-amyloid (minimum concentration) [5] [mM] | Toxicity at the concentration for which activity was found [1] | Toxic at maximum concentration tested (Yes/No) ([1]; at 100 μM)
1 | CCCSc1cc(/C=N/O)nc2c1ccc1cccnc12 [Compound 5, 4-Propylsulfanyl-[1,10]phenanthroline-2-carbaldehyde oxime] | 1000 | Yes | 5 | 0.05 | 0.5 | 0.001 | – | – | – | – | – | – | – | –
2 | CCOc1cc(/C=N/O)nc2c1ccc1cccnc12 [Compound 6, 4-Ethoxy-[1,10]phenanthroline-2-carbaldehyde oxime] | 1000 | Yes | 5 | 0.05 | 0.5 | 0.01 | 10 | – | – | – | – | – | – | –
3 | ON=Cc1cc(Sc2nncs2)c2ccc3cccnc3c2n1 [Compound 19, 4-([1,3,4]Thiadiazol-2-ylsulfanyl)-[1,10]phenanthroline-2-carbaldehyde oxime] | 10 | – | – | – | – | – | – | Yes | 0.5 | 1 | – | – | – | –
4 | CN(C)C(=O)CSc1cc(C=NO)nc2c1ccc1cccnc12 [Compound 12, 2-[2-(Hydroxyimino-methyl)-[1,10]phenanthrolin-4-ylsulfanyl]-N,N-dimethyl-acetamide] | 1000 | – | – | 0.1 | 0.5 | – | 10 | – | 0.1 | 1 | No | – | – | –
5 | COC(=O)CSc1cc(C=NO)nc2c1ccc1cccnc12 [Compound 14, [2-(Hydroxyimino-methyl)-[1,10]phenanthrolin-4-ylsulfanyl]-acetic acid methyl ester] | 1000 | – | – | 0.5 | 0.5 | – | 10 | – | 0.05 | 0.01 | Yes | – | – | –
6 | NCCOc1cc(/C=N/O)nc2c1ccc1cccnc12 [Compound 9, 4-(2-Amino-ethoxy)-[1,10]phenanthroline-2-carbaldehyde oxime] | 10 | – | – | 5 | 5 | – | 5 | No | 5 | – | – | 10 | – | –
7 | Cc1cnc(Sc2cc(C=NO)nc3c2ccc2cccnc23)s1 [Compound 17, 4-(5-Methyl-thiazol-2-ylsulfanyl)-[1,10]phenanthroline-2-carbaldehyde oxime] | 1000 | – | – | – | – | – | – | – | 5 | 10 | Yes | – | – | –
8 | O=Cc1cc(Cl)c2ccc3cccnc3c2n1 [Compound 3, 4-Chloro-[1,10]phenanthroline-2-carbaldehyde] | 10 | – | – | – | 10 | – | – | Yes | 10 | – | – | – | exception | –
9 | Cc1nnc(Sc2cc(C=NO)nc3c2ccc2cccnc23)s1 [Compound 18, 4-(5-Methyl-[1,3,4]thiadiazol-2-ylsulfanyl)-[1,10]phenanthroline-2-carbaldehyde oxime] | 10 | – | – | 0.05 | 10 | – | 10 | Yes | 0.05 | 0.1 | – | – | – | –
10 | ON=Cc1cc(Cl)c2ccc3cccnc3c2n1 [Compound 2, 4-Chloro-[1,10]phenanthroline-2-carbaldehyde oxime] | 1000 | Yes | – | 0.5 | 0.5 | – | 10 | – | 0.05 | – | – | 1 | – | –
11 | ON=Cc1cc(Sc2nccs2)c2ccc3cccnc3c2n1 [Compound 15, 4-(Thiazol-2-ylsulfanyl)-[1,10]phenanthroline-2-carbaldehyde oxime] | 100 | – | – | – | – | – | – | – | 0.5 | 10 | – | – | – | Yes
12 | ON=Cc1cc(SCC(F)(F)F)c2ccc3cccnc3c2n1 [Compound 13, 4-(2,2,2-Trifluoro-ethylsulfanyl)-[1,10]phenanthroline-2-carbaldehyde oxime] | 1000 | – | – | 0.5 | 5 | – | 5 | – | 0.5 | 10 | No | – | – | –
13 | CSc1cc(C=O)nc2c1ccc1cccnc12 [Compound 20, 4-Methylsulfanyl-[1,10]phenanthroline-2-carbaldehyde] | 10 | – | – | – | – | – | – | Yes | 0.5 | 10 | – | – | – | –
